The text below walks through data of patent US6048875A, “Benzothiophene, benzofuran and indole compounds” (Adir et Compagnie, priority 1998, dated 2000).

Molecules are shown by their SMILES.

The target of this experiment is recombinant active human PAI-1 (Homo sapiens, UniProt P05121). Kind of experiment: Inhibition of the activity of PAI-1 (fibrin clot formation and breakdown monitored by turbidity in microplate wells; fibrinolytic activity). Format: biochemical. Particulars: in vitro, pH 7.4 phosphate buffer, clot absorbance two hours after fibrin formation, 2 nM PAI-1 solution, tissue plasminogen activator, fibrinogen, human thrombin, read-out: fibrinolytic activity IC50 (concentration of product that inhibits PAI-1 activity by 50%).
Sequence of recombinant active human PAI-1 (P05121 24-402): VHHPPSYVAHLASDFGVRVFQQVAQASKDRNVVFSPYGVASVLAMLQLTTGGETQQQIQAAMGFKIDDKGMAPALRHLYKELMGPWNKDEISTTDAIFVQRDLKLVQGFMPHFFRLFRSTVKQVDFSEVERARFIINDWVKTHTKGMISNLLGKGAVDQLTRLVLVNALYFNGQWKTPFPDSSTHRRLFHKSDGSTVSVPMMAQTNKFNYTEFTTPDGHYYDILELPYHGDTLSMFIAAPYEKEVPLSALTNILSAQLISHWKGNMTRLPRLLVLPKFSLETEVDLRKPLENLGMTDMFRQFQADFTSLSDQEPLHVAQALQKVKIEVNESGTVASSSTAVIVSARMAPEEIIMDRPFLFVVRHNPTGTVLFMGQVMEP
Turning to `COc1cc2sc(/C=C(/C(=O)O)c3ccncc3)c(Oc3cccnc3)c2cc1OCc1ccccc1` [Example 67], the IC50 was determined as 5 µM.

For the compound `O=C(O)/C(=C/c1sc2cc(OCc3ccccc3)c(OCc3ccccc3)cc2c1Oc1ccc(-c2ccncc2)cc1)c1ccncc1` [Example 66], the IC50 turned out to be 2.2 µM.

As to `O=C(O)/C(=C/c1sc2cc(OCc3ccccc3)c(OCc3ccccc3)cc2c1Oc1ccc(OCc2ccccc2)cc1)c1ccncc1`, the IC50 was 7 µM.

`COc1ccc(Oc2c(/C=C(/C(=O)O)c3ccncc3)sc3cc(OCc4ccccc4)c(OCc4ccccc4)cc23)cc1`: the IC50 was 13 µM.
